Consider 1 compound from PMC12257544, “Fluorescent Isostere (Fluostere) of the Carboxylate: Design of hDHODH Fluorescent Inhibitors as Proof of Concept” (Journal of Medicinal Chemistry, 2025).

Data set [1] is described as follows: Photophysical characterization (absorption, emission, QY, lifetime). It counts as physicochemical. How it is done: UV–Vis absorption spectra were recorded on a Cary60 spectrometer. Photoemission spectra, luminescence lifetimes, and quantum yields were acquired with a HORIBA Jobin Yvon IBH Fluorolog-TCSPC spectrofluorometer equipped with a Quanta-φ integrating sphere. […] Emission-decay data were collected in 2048 channels to 10000 counts in the peak channel. IRF was measures using colloidal silica suspension in H2O to scatter light. Data were analyzed with the software DAS6 (TCSPC decay-analysis software) using a nonlinear least-squares method to fit of the decay to a sum of exponentials. The value of χ^2, residuals and the autocorrelation function (Durbin-Watson parameter) were used to determine the quality of the fit. For measurements in the presence of hDHODH, 11a was incubated, at 1 μM concentration in TRIS Buffer 0.1 mM (pH 8) with 0.1% DMSO, alone or with different concentrations of recombinant protein ranging from 31.5 to 504 nM concentration. After 5 min incubation UV–Vis absorption spectra were recorded on a Cary60 spectrophotometer and photoemission spectra were acquired with a HORIBA Jobin Yvon IBH Fluorolog-TCSPC spectrofluorometer with excitation λ of 366 nm and maximum of emission at 500 nm; a.u. data were analyzed with GraphPad Prism using One Site – Specific Binding equation.

The next data set relates to K562 cells. Nature of the data set: Cell viability assay (CellTiter-Glo). The format is cell-based. As to conditions: Homo sapiens, K562, 72 h; 3 days of culture; read-out: Viability EC50 K562 (C.L. 95 %). The protocol: (§1) After 3 days of culture, the percentage of live cells was determined using the CellTiter-Glo Luminescent assay (Promega, Milan, Italy), following the manufacturer’s instructions.
A general note: ATP-based viability assays read luminescence as a measure of living cells.

The test system of a further data set is A549 cells. The experiment in a line: Cell viability assay (CellTiter-Glo). It counts as cell-based. As to conditions: Homo sapiens, A549, 72 h; 3 days of culture; read-out: Viability EC50 A549 (C.L. 95 %). How it is done: as §1
The next data set concerns HCT-8 cells. Nature of the data set: Confocal Red-MitoTracker co-localization. It counts as cell-based, human. As to conditions: 10 μM, 24 h. The protocol: Co-localization experiments were performed to examine whether compound 11a may reach the cellular compartment where hDHODH is located. For this, a specific mitochondrial stain marker in the two cell lines in which the biological activities of 11a were observed, namely THP-1 and HCT-8 cells, was used. The compound was therefore incubated with THP-1 cells (Figure ) or HTC-8 cells (Figure ) at 37 °C for 24 h. Then, cells were stained with Red-MitoTracker (a specific fluorescent probe for mitochondrial targeting) for 30 min at 37 °C.
For fluorescence analysis, 10 μM of target compounds were incubated with THP-1 for 24 h. After washing the cells with a PBS buffer solution, they were analyzed under confocal microscopy imaging technique using the appropriate laser to excite the molecule. For the colocalization experiments, HCT-8 cells (55,000 cells/well) were plated on μ-Slide 8 well high glass bottom (IBIDI, Gräfelfing, Germany) and treated for 24 h with 10 μM of 11a at 37 °C. Then, cells were stained with MitoTracker Red CMXRos (ThermoFischer, Carlsbad, CA, USA) (1:4000) for 30′ at 37 °C and after washing with PBS buffer solution, cells were visualized with a Leica TCS SP5 multiphoton-inverted confocal microscope equipped with LAS AF matrix software. Live cells were imaged using an HCX PL APO 63×/1.4 NA oil immersion objective. […]

Data set [2] relates to unrelated GST-conjugated-protein. The experiment in a line: Fluorescence control with an unrelated GST-conjugated protein. It counts as binding. As to conditions: fixed amount of compound, increasing protein concentration. The protocol: Because the isolated hDHODH used for the previous measurements, and in inhibition enzymatic assay, is the GST-tagged protein, we decided to confirm that the observed fluorescence enhancement resulted from specific binding of inhibitor 11a to the target protein and not from nonspecific interactions with the GST portion.
Apoptosis test rescue with uridine:
Figure S4. A) Analysis of the apoptotic rate induced by compound 11a, on THP-1 cell line (n = 3) with or without exogenous uridine at 100 µM. Compounds were utilized at 1 µM; apoptotic was evaluated after 3 days of treatment. DMSO: dimethyl sulfoxide. Cpd: compound. Ur: uridine. Statistical significance: Student’s t test: **p<0.01. B) Representative Annexin V-FITC/PI flow cytometry dot plots of THP-1 cells after 3 days of treatment in presence of vehicle (left), compound 11a (middle), compound 11a and uridine 100 µM. Data are representative of 3 independent experiments.
Figure S5. Fluorescence-based analysis of the potential contribution of GST-tag to the emission restoration of compound 11a. […]
increasing concentration versus a fixed amount of compound 11a. […]
show protein-dependent fluorescence restoration. […]

In another data set the target is hDHODH enzyme GST-tagged (Homo sapiens, UniProt Q02127). Nature of the data set: hDHODH inhibition assay (DCIP reduction).
Chain of hDHODH enzyme GST-tagged (Q02127 whole entry): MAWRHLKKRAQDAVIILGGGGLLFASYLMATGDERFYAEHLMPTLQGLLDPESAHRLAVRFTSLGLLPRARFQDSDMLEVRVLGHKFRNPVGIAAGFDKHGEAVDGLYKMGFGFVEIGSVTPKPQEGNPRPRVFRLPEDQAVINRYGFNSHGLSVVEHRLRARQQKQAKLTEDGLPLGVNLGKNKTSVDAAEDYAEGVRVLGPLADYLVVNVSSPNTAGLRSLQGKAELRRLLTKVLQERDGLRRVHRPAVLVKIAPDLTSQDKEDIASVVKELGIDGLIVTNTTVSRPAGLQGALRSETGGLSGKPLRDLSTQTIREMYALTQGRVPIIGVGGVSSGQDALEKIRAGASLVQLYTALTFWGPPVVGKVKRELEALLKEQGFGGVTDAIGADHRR

Where “and” joins values, the source holds several entries; their conditions need not be identical. Equal values may be shown once.

Procedure for hDHODH enzyme GST-tagged: The enzyme (around 60 nM) was preincubated for 5 min at 37 °C in Tris-buffer solution (pH 8.0) with coenzyme Q10 (100 μM), tested compounds at different concentrations (final DMSO concentration 0.1% v/v), and DCIP (50 μM). The reaction was initiated by addition of DHO (500 μM) and the reduction was monitored at λ = 650 nm. […] Values are means ± SE of three independent experiments.

For the compound `Oc1nn2ccccc2c1/C=C/c1c(F)c(F)c(-c2ccccc2)c(F)c1F` [Compound 11a, (E)-3-(2-(2,3,5,6-Tetrafluoro-[1,1’-biphenyl]-4-yl)vinyl)pyrazolo[1,5-a]pyridin-2-ol], the “emission in PBS solution” value in data set [1] (PBS, polar protic solvent) is “completely quenched”. Further, the “emission in TRIS buffer” value in data set [1] (TRIS buffer (pH 8), conditions of the enzymatic assay, no protein) is recorded as “absence of emission”. In data set [1] (in ACN), the Lifetime was under 1 ns, the “QY (luminescence quantum yield)” value turned out to be 0.12, the Stokes shift is given as 4174 cm^–1 and the λabs was determined as 442 nm. Moreover, the λem in data set [1] (in ACN) was 535 nm and 542 nm. For the same compound, the EC50 (as a rule, the concentration that produces a half-maximal response) in the data set on K562 cells came out at 114 nM. Further, the EC50 in the data set on A549 cells amounted to 423 nM. In the data set with HCT-8 cells, the “co-localization with Red-MitoTracker” value was “localize into mitochondria”. Also, in data set [2], the “fluorescence in the presence of an unrelated GST-conjugated protein” value was “no restoration of fluorescence”. Inhibition at hDHODH enzyme GST-tagged was half-maximal at 170 nM (IC50).
